Assay results published in patent US20190083437A1, “S- Methylcysteine Sulfoxide For Prostate Cancer Prevention And Treatment” (QUADRAM INSTITUTE BIOSCIENCE, priority 2016, published 2019).

Legend:
[1] = tested on: Human prostate PNT1A cells; assay: Cell assay of SMCSO uptake/accumulation in cells (HPLC of whole cell lysates); type: cell-based; conditions: 300 μM SMCSO
Description: PNT1A cells were treated with 300μM SMCSO and intracellular levels of SMCSO were quantified following incubation of between 1 h and 72 h. Data shown are means±SD (n=3).
Human prostate PNT1A cells were incubated with 300 μM SMCSO for up to 72 h in triplicate. Whole cell lysates were collected at regular intervals between 0 and 72 h and levels of SMCSO were quantified by HPLC as above. […] Uptake increases up to approximately 30% following 72 h of exposure to SMCSO.

[2] = SMCSO bioavailability from single dietary supplementation with Beneforte broccoli and stilton soup (plasma and urine over 24 h); type: in vivo, human
From the text: Exposure of prostate tissues to S-methylcysteine sulfoxide may occur either through the systemic circulation in the blood stream, or through urinary reflux. Indeed, urinary reflux into prostatic ducts is common knowledge in the field (Kirby R. S. et al. Intra-prostatic urinary reflux: an aetiological factor in abacterial prostatitis. British Journal of Urology 54, 729-731 (1982)). FIGS. 5 and 6 respectively show the plasma concentration and cumulative excretion of S-methylcysteine sulfoxide in urine following consumption of Beneforté™ broccoli (described, for example, in WO99/052345) and Stilton soup containing 1.2 mmoles of S-methylcysteine sulfoxide.
The change in plasma concentration of S-methylcysteine sulfoxide was recorded over 24 hours in ten patients.
Ten patients took part in this study. The total S-methylcysteine sulfoxide excreted represented 23% of that consumed.
A dietary intervention study was carried out on healthy subjects (n=10) whereby a single event of dietary supplementation was carried out with Beneforte™ broccoli and stilton soup, produced according to the recipe as described in Example 1, providing an effective SMCSO dose of 1.2 mmoles. This was followed by urine and blood collection over 24 h. Plasma and urinary concentrations of SMCSO were measured, see FIGS. 5 (plasma) and 6 (urine). SMCSO concentration in blood plasma increased from a baseline level of 0 μM at the start of the 24 h period to a maximum concentration of 24 μM one hour after consumption of the soup. […] The 24 h cumulative urinary concentration was over 100 μmoles SMCSO.

[3] = within 24 h, radioactive SMCSO to humans; cited from earlier work
prostate tissue = assay: Short duration (4-6 weeks) diet intervention study: SMCSO and ADP in prostate biopsy tissue; type: in vivo, human; conditions: three 300 g portions per week (6.4 mmoles SMCSO each) for at least 4 weeks, n=9 per arm, p=0.005
From the text: A two arm parallel un-blinded short-term intervention with an enhanced dose of broccoli soups was undertaken. The study recruited men who had been diagnosed or were under investigation for prostate cancer and required a transperineal template biopsy as part of their standard clinical care.
Patients recruited onto this study were randomly allocated to one of two arms in which they were required to consume three portions of broccoli and stilton soup per week for at least four weeks prior to their biopsy (i) or to follow their normal diet until the operation date (ii). The broccoli and stilton soups contained glucoraphanin-enriched Beneforte® broccoli. The study was not blinded and involved tissue, blood and urine collection on the same day that patients were scheduled for their diagnostic biopsy. Their habitual intake of cruciferous vegetables and dietary supplements was assessed. […]
SMCSO was measured by following the method described by Bernaert and colleagues (Bernaert, N., et al., Influence of cultivar and harvest time on the amounts of isoalliin and methiin in leek (Allium ampeloprasum var. porrum). J Agric Food Chem, 2012. 60(44): p. 10910-9). […] After centrifugation, the supernatant was diluted with 0.1% formic acid in water, and analysed by LC-MS/MS using an Agilent 6490 mass spectrometer with a photodiode array detector. […]

[4] = tested on: human prostatic PNT1A cell line; assay: ATP levels in prostate cell assay (fluorimetric kit); type: cell-based; conditions: SMCSO 100 μM or 200 μM, 24 hours exposure, vs control cells
Description: The concentration of S-methylsulfoxide used in this study (100 μmol to 200 μmop was similar to that found in urine following consumption of 1.0-1.5 mmoles of S-methylcysteine sulfoxide.
Cells of the human prostatic PNT1A cell line were incubated with SMCSO at 100 μM or 200 μM, these concentrations were chosen as they were consistent with the physiological concentrations of SMCSO measured in the human intervention diet study, for example 2-4 hours after consumption of Beneforté™ broccoli soup the concentration of SMCSO in the urine of study subjects ranged from 42.18 μM to 130.17 μM, see Table 1. ATP levels (nmol/mg protein) in control and SMCSO treated cells were measured fluorimetrically using a commercially available kit (Abcam, ab 8335).

For S-methylcysteine sulfoxide [SMCSO], the “cellular uptake of SMCSO (speed)” value [1] was “rapid, as early as 1 h”, the “intracellular SMCSO uptake as % of exposure” value ([1]; 72 h of exposure) was “approximately 30%” and the “intracellular SMCSO level as % of the initial exposure levels” value ([1]; constant from 1 h for at least 24 h) was 10%. For the same substance, the “concentration of SMCSO in urine (up to)” value ([2]; 0-2 h after consumption, 1.2 mmoles SMCSO) was “up to 164 uM”, the “likely concentration of SMCSO within a single urination” value ([2]; 0-2 h after consumption, estimate) was > 200 µM and the “blood plasma levels at the end of the 24 h period” value ([2]; 1.2 mmoles SMCSO, 24 h) was “remained elevated above baseline”. The “cumulative urinary SMCSO, mean” value ([2]; 2-4 hours after dietary supplementation, 1.2 mmoles SMCSO) was 71.5 µmol, the “24 h cumulative urinary SMCSO” value ([2]; 24 h, 1.2 mmoles SMCSO) was “over 100 μmoles” and the “S-methylcysteine sulfoxide excreted in urine (concentration, up to)” value ([2]; first 0-2 hours, soup containing 1.2 mmoles) was “up to 163.9 μM”. For the same substance, the “time of maximum plasma concentration after consumption of the soup” value ([2]; healthy subjects n=10, 1.2 mmoles SMCSO) was “one”, the “maximum SMCSO concentration in blood plasma” value ([2]; healthy subjects n=10, single soup portion providing 1.2 mmoles SMCSO, oral) was 24 µM and the “total S-methylcysteine sulfoxide excreted in urine as share of that consumed” value ([2]; ten patients, 1.2 mmoles, cumulative) was 23%. For the same substance, the “SMCSO excreted un-metabolised within urine” value [3] was 6-8%, the “SMCSO accumulation in prostate biopsy tissue, intervention vs non-intervention arm” value (prostate tissue) was “increased accumulation” and the “cellular concentration of ATP” value [4] was “reduced”.
